The text below walks through data of ChEMBL document CHEMBL3046957, “Synthesis of new oxadiazole derivatives as anti-inflammatory, analgesic, and antimicrobial agents” (2013).

Common to all, as to type: functional
For assay [1], the system named is Candida albicans. Nature of the assay: Antifungal activity against Candida albicans assessed as growth inhibition at 100 ug/mL after 24 hr by cup-plate method. To be noted: read-out: DIZ.
Assay [2] relates to Aspergillus niger. The experiment in a line: Antifungal activity against Aspergillus niger assessed as growth inhibition at 100 ug/mL after 24 hr by cup-plate method. To be noted: read-out: DIZ.
For assay [3], the system named is Rattus norvegicus. The experiment in a line: Anti-inflammatory activity in Wistar albino Rattus norvegicus (rat) assessed as inhibition of carrageenan-induced paw edema at 10 mg/kg, po administered 30 min prior to carrageenan challenge measured after 3 hr by plethysmometric analysis relative to untreated control. (In general: In the carrageenan paw model, swelling and tenderness develop within hours.)

For assay [4], the system named is Mus musculus. The experiment in a line: Analgesic activity in Swiss albino Mus musculus (mouse) assessed as latency time of heat-induced paw licking/jumping behaviour at 10 mg/kg after 4 hr by Eddy's hot plate method (reference value: 4.57 +/- 0.11 secs).
In assay [5] the test system is Bacillus subtilis. The experiment in a line: Antibacterial activity against Bacillus subtilis assessed as growth inhibition at 50 ug/mL after 24 to 48 hr by cup-plate method. The following applies: read-out: DIZ.
The subject of assay [6] is Staphylococcus aureus. The experiment in a line: Antibacterial activity against Staphylococcus aureus assessed as growth inhibition at 50 ug/mL after 24 to 48 hr by cup-plate method. To be noted: read-out: DIZ.
Assay [7] has as its system Rattus norvegicus. The experiment in a line: Anti-inflammatory activity in Wistar albino Rattus norvegicus (rat) assessed as inhibition of carrageenan-induced paw edema at 10 mg/kg, po administered 30 min prior to carrageenan challenge measured after 1.5 hr by plethysmometric analysis relative to untreated control.
For assay [8], the system named is Bacillus subtilis. Nature of the assay: Antibacterial activity against Bacillus subtilis assessed as growth inhibition at 100 ug/mL after 24 to 48 hr by cup-plate method. To be noted: read-out: DIZ.
Assay [9] deals with Aspergillus niger. The experiment in a line: Antifungal activity against Aspergillus niger assessed as growth inhibition at 50 ug/mL after 24 hr by cup-plate method. To be noted: read-out: DIZ.
For assay [10], the system named is Mus musculus. The experiment in a line: Analgesic activity in Swiss albino Mus musculus (mouse) assessed as latency time of heat-induced paw licking/jumping behaviour at 10 mg/kg after 2 hr by Eddy's hot plate method (reference value: 4.86 +/- 0.18 secs).
Assay [11] relates to Candida albicans. Nature of the assay: Antifungal activity against Candida albicans assessed as growth inhibition at 50 ug/mL after 24 hr by cup-plate method. The following applies: read-out: DIZ.
Assay [12] concerns Pseudomonas aeruginosa. Nature of the assay: Antibacterial activity against Pseudomonas aeruginosa assessed as growth inhibition at 50 ug/mL after 24 to 48 hr by cup-plate method. To be noted: read-out: DIZ.
For assay [13], the system named is Rattus norvegicus. The experiment in a line: Anti-inflammatory activity in Wistar albino Rattus norvegicus (rat) assessed as inhibition of carrageenan-induced paw edema at 10 mg/kg, po administered 30 min prior to carrageenan challenge measured after 2 hr by plethysmometric analysis relative to untreated control.
Assay [14] deals with Escherichia coli. Nature of the assay: Antibacterial activity against Escherichia coli assessed as growth inhibition at 100 ug/mL after 24 to 48 hr by cup-plate method. To be noted: read-out: DIZ.
For assay [15], the system named is Pseudomonas aeruginosa. The experiment in a line: Antibacterial activity against Pseudomonas aeruginosa assessed as growth inhibition at 100 ug/mL after 24 to 48 hr by cup-plate method. The following applies: read-out: DIZ.
Assay [16] has as its system Mus musculus. The experiment in a line: Analgesic activity in Swiss albino Mus musculus (mouse) assessed as latency time of heat-induced paw licking/jumping behaviour at 10 mg/kg after 0.5 hr by Eddy's hot plate method (reference value: 4.17 +/- 0.04 secs). (Hot-plate and tail-flick tests time the reaction to a heat stimulus.)
In assay [17] the test system is Rattus norvegicus. The experiment in a line: Anti-inflammatory activity in Wistar albino Rattus norvegicus (rat) assessed as inhibition of carrageenan-induced paw edema at 10 mg/kg, po administered 30 min prior to carrageenan challenge measured after 1 hr by plethysmometric analysis relative to untreated control.
The test system of assay [18] is Mus musculus. The experiment in a line: Analgesic activity in Swiss albino Mus musculus (mouse) assessed as latency time of heat-induced paw licking/jumping behaviour at 10 mg/kg after 1 hr by Eddy's hot plate method (reference value: 4.74 +/- 0.21 secs).
Assay [19] relates to Rattus norvegicus. The experiment in a line: Anti-inflammatory activity in Wistar albino Rattus norvegicus (rat) assessed as inhibition of carrageenan-induced paw edema at 10 mg/kg, po administered 30 min prior to carrageenan challenge measured after 0.5 hr by plethysmometric analysis relative to untreated control.
Assay [20] deals with Escherichia coli. Nature of the assay: Antibacterial activity against Escherichia coli assessed as growth inhibition at 50 ug/mL after 24 to 48 hr by cup-plate method. The following applies: read-out: DIZ.
Assay [21] relates to Staphylococcus aureus. The experiment in a line: Antibacterial activity against Staphylococcus aureus assessed as growth inhibition at 100 ug/mL after 24 to 48 hr by cup-plate method. To be noted: read-out: DIZ.

Turning to `COc1ccc(F)cc1-c1cccc(-c2nn(CCOS(=O)(=O)c3ccc(F)c(Cl)c3)c(=O)o2)c1`, the zone of inhibition at 100 µg/mL was 7 mm with Candida albicans [1]; 11 mm with Aspergillus niger [2]; 22 mm in the assay on Bacillus subtilis [8]; 19 mm in the assay with Escherichia coli [14]; 18 mm with Pseudomonas aeruginosa [15]; 20 mm with Staphylococcus aureus [21]. Besides, the inhibition in vivo at 10 mg/kg was found to be 65% with Rattus norvegicus [3]; 55% in the assay with Rattus norvegicus [7]; 62% with Rattus norvegicus [13]; 42% in the assay with Rattus norvegicus [17]; 23% with Rattus norvegicus [19]. The Time worked out at 5.47 s with Mus musculus [4], 5.87 s with Mus musculus [10], 4.62 s in the assay on Mus musculus [16] and 4.69 s with Mus musculus [18]. The zone of inhibition at 50 µg/mL in the assay with Bacillus subtilis [5] was found to be 20 mm; in the assay on Staphylococcus aureus [6], 13 mm; in the assay with Aspergillus niger [9], 9 mm; with Candida albicans [11], 8 mm; in the assay with Pseudomonas aeruginosa [12], 17 mm; with Escherichia coli [20], 13 mm.

As to `COc1ccc(F)cc1-c1cccc(-c2nn(CCCC#N)c(=O)o2)c1`, the zone of inhibition at 100 µg/mL was 16 mm with Candida albicans [1]; 14 mm in the assay with Aspergillus niger [2]; 14 mm with Bacillus subtilis [8]; 16 mm in the assay with Escherichia coli [14]; 14 mm with Pseudomonas aeruginosa [15]; 14 mm in the assay on Staphylococcus aureus [21]. Further, the inhibition in vivo at 10 mg/kg in the assay on Rattus norvegicus [3] is 85%; in the assay on Rattus norvegicus [7] it was 59%; in the assay with Rattus norvegicus [13] it was 71%; in the assay with Rattus norvegicus [17] it was 44%; with Rattus norvegicus [19], 29%. The Time with Mus musculus [4] was found to be 7.08 s; with Mus musculus [10], 7.11 s; in the assay with Mus musculus [16], 5.71 s; in the assay on Mus musculus [18] it was 5.64 s. Moreover, the zone of inhibition at 50 µg/mL in the assay on Bacillus subtilis [5] turned out to be 13 mm; in the assay with Staphylococcus aureus [6], 10 mm; with Aspergillus niger [9], 12 mm; in the assay on Candida albicans [11] it was 10 mm; in the assay on Pseudomonas aeruginosa [12], 11 mm; in the assay on Escherichia coli [20], 11 mm.

For `COc1ccc(F)cc1-c1cccc(-c2nn(CCOS(=O)(=O)c3ccc(F)cc3)c(=O)o2)c1`, the zone of inhibition at 100 µg/mL with Candida albicans [1] amounted to 6 mm; in the assay with Aspergillus niger [2] it was 9 mm; with Bacillus subtilis [8], 20 mm; with Escherichia coli [14] it was 16 mm; in the assay on Pseudomonas aeruginosa [15] it was 15 mm; in the assay with Staphylococcus aureus [21], 21 mm. Moreover, the inhibition in vivo at 10 mg/kg in the assay with Rattus norvegicus [3] came out at 67%; with Rattus norvegicus [7], 50%; in the assay on Rattus norvegicus [13], 63%; with Rattus norvegicus [17], 40%; with Rattus norvegicus [19], 24%. Further, the Time in the assay with Mus musculus [4] worked out at 6.01 s; with Mus musculus [10] it was 6.17 s; in the assay on Mus musculus [16], 4.91 s; with Mus musculus [18], 5.01 s. The zone of inhibition at 50 µg/mL in the assay on Bacillus subtilis [5] stood at 15 mm; in the assay on Staphylococcus aureus [6] it was 15 mm; with Aspergillus niger [9], 5 mm; with Candida albicans [11], 5 mm; in the assay on Pseudomonas aeruginosa [12], 10 mm; in the assay on Escherichia coli [20], 12 mm.

As for `COc1ccc(F)cc1-c1cccc(-c2nn(CCCN)c(=O)o2)c1`, the zone of inhibition at 100 µg/mL is 12 mm in the assay with Candida albicans [1]; 12 mm in the assay with Aspergillus niger [2]; 19 mm with Bacillus subtilis [8]; 16 mm in the assay with Escherichia coli [14]; 21 mm in the assay with Pseudomonas aeruginosa [15]; 17 mm with Staphylococcus aureus [21]. Besides, the inhibition in vivo at 10 mg/kg with Rattus norvegicus [3] is 77%; in the assay with Rattus norvegicus [7], 55%; with Rattus norvegicus [13], 66%; in the assay on Rattus norvegicus [17], 43%; in the assay with Rattus norvegicus [19], 29%. Further, the Time in the assay on Mus musculus [4] came out at 5.49 s; with Mus musculus [10] it was 6.84 s; in the assay with Mus musculus [16], 4.93 s; with Mus musculus [18], 4.62 s. The zone of inhibition at 50 µg/mL in the assay on Bacillus subtilis [5] came out at 12 mm; in the assay with Staphylococcus aureus [6], 12 mm; in the assay on Aspergillus niger [9], 10 mm; with Candida albicans [11] it was 5 mm; in the assay on Pseudomonas aeruginosa [12], 17 mm; in the assay on Escherichia coli [20] it was 15 mm.

`COc1ccc(F)cc1-c1cccc(-c2nn(CCCN3C(=O)c4ccccc4C3=O)c(=O)o2)c1`: the zone of inhibition at 100 µg/mL was 10 mm with Candida albicans [1]; 10 mm in the assay on Aspergillus niger [2]; 18 mm in the assay with Bacillus subtilis [8]; 18 mm with Escherichia coli [14]; 19 mm in the assay with Pseudomonas aeruginosa [15]; 16 mm in the assay on Staphylococcus aureus [21]. Moreover, the inhibition in vivo at 10 mg/kg in the assay with Rattus norvegicus [3] worked out at 64%; in the assay on Rattus norvegicus [7] it was 49%; with Rattus norvegicus [13] it was 61%; in the assay with Rattus norvegicus [17] it was 30%; with Rattus norvegicus [19], 19%. The Time with Mus musculus [4] is on record as 4.01 s; with Mus musculus [10] it was 4.01 s; in the assay with Mus musculus [16] it was 4.75 s; in the assay with Mus musculus [18], 4.11 s. The zone of inhibition at 50 µg/mL was determined as 13 mm in the assay on Bacillus subtilis [5]; 10 mm with Staphylococcus aureus [6]; 7 mm with Aspergillus niger [9]; 6 mm in the assay with Candida albicans [11]; 13 mm in the assay on Pseudomonas aeruginosa [12]; 15 mm in the assay with Escherichia coli [20].

Consider `COc1ccc(F)cc1-c1cccc(-c2n[nH]c(=O)o2)c1`, for which the zone of inhibition at 100 µg/mL in the assay with Candida albicans [1] was found to be 21 mm; with Aspergillus niger [2] it was 28 mm; in the assay on Bacillus subtilis [8], 12 mm; in the assay with Escherichia coli [14], 14 mm; in the assay with Pseudomonas aeruginosa [15], 13 mm; in the assay with Staphylococcus aureus [21], 13 mm. Also, the inhibition in vivo at 10 mg/kg is 71% in the assay with Rattus norvegicus [3]; 49% in the assay on Rattus norvegicus [7]; 56% with Rattus norvegicus [13]; 41% in the assay on Rattus norvegicus [17]; 25% with Rattus norvegicus [19]. The Time stood at 6.35 s in the assay on Mus musculus [4], 7.41 s in the assay with Mus musculus [10], 4.22 s with Mus musculus [16] and 4.74 s in the assay on Mus musculus [18]. Besides, the zone of inhibition at 50 µg/mL with Bacillus subtilis [5] worked out at 8 mm; with Staphylococcus aureus [6], 9 mm; with Aspergillus niger [9], 15 mm; with Candida albicans [11], 12 mm; with Pseudomonas aeruginosa [12], 10 mm; with Escherichia coli [20], 8 mm.

The term inhibition in vivo denotes the relative decrease from the control value, in per cent.
